The results in this text go back to ChEMBL document CHEMBL1129901, “Amide bond surrogates: A study in thiophenesulfonamide based endothelin receptor antagonists” (Bioorg Med Chem Lett, 1997).

The target of assay [1] is T1, Endothelin-1 receptor (Homo sapiens, UniProt P25101).
T1 sequence (P25101 whole entry): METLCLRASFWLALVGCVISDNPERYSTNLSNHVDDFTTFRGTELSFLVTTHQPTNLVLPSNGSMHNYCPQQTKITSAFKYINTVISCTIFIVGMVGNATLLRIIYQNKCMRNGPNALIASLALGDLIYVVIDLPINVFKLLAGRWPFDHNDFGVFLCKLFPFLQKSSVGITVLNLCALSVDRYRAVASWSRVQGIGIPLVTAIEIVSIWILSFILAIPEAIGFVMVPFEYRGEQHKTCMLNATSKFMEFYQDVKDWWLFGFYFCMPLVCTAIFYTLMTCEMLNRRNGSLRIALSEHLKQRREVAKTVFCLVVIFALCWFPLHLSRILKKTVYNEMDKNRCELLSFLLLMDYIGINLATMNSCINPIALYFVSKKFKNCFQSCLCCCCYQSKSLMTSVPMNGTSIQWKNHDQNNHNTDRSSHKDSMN
As to the kind of experiment: Tested for the inhibitory activity of cloned human ETA receptor by using I-ET-1 as radioligand in a competitive radioligand assay.

The target in assay [2] is T2, Endothelin receptor type B (Homo sapiens, UniProt P24530).
T2 sequence (P24530 whole entry): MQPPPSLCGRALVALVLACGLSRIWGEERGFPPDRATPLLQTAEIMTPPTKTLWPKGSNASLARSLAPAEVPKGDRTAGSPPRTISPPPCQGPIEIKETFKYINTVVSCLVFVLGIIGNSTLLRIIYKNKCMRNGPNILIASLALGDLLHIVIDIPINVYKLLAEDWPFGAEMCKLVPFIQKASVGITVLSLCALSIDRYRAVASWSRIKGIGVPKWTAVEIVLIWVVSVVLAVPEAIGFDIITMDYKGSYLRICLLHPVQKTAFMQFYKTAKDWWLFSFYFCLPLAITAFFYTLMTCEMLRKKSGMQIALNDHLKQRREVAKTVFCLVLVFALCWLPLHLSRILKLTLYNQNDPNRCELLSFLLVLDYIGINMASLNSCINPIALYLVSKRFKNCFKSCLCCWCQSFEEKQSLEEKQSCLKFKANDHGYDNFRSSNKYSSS
As to the kind of experiment: Tested for the inhibitory activity of cloned human ETB receptor by using I-ET-1 as radioligand in a competitive radioligand assay.

Assay [3] has as its target T2, Endothelin receptor type B. As to the kind of experiment: Inhibition of human Endothelin B receptor using I-ET-1 as radioligand in a competitive radioligand assay.
Assay [4] addresses T1, Endothelin-1 receptor. As to the kind of experiment: Inhibitory of human Endothelin A receptor by using I-ET-1 as radioligand in a competitive radioligand assay.

The term IC50 denotes the point on the concentration scale where inhibition reaches its midpoint. A higher IC50 goes with a need for much substance.

The structures appear in SMILES notation.

For `Cc1cc2c(cc1/C=C/c1ccsc1S(=O)(=O)Nc1onc(C)c1Br)OCO2`, the IC50 stood at 72 nM in assay [1] and 5370 nM in assay [2].
Regarding `Cc1cc2c(cc1CCc1sccc1S(=O)(=O)Nc1onc(C)c1Br)OCO2`, the figures for the IC50 in assay [3] and in assay [4] were 8900 nM and 62 nM, respectively.
For the compound `Cc1noc(NS(=O)(=O)c2sccc2/C=C/c2cc3c(cc2COC2CCOCC2)OCO3)c1Br`, the results for the IC50 in assay [3] and in assay [4] were 4130 nM and 73 nM, respectively.
With `Cc1cc(C)c(/C=C/c2sccc2S(=O)(=O)Nc2onc(C)c2Br)c(C)c1`, the concentration for half-maximal inhibition (IC50) in assay [3] turned out to be 2000 nM; in assay [4], 44 nM.
Taken in the same sequence, the figures for `Cc1noc(NS(=O)(=O)c2ccsc2CCc2ccc3c(c2)OCO3)c1Br` were 9240 nM and 205 nM.
The corresponding values for `Cc1cc2c(cc1CCc1ccsc1S(=O)(=O)Nc1onc(C)c1Br)OCO2` are 12400 nM and 91 nM.
In the case of `Cc1cc(C)c(CCc2ccsc2S(=O)(=O)Nc2onc(C)c2Br)c(C)c1`, the concentration for half-maximal inhibition (IC50) in assay [3] amounted to 1390 nM; in assay [4], 58 nM.
The corresponding values for `Cc1noc(NS(=O)(=O)c2sccc2/C=C/c2cc3c(cc2CO)OCO3)c1Br` are 3240 nM and 79 nM.
With `Cc1ccc(/C=C/c2ccsc2S(=O)(=O)Nc2onc(C)c2Br)cc1`, in assay [3], the IC50 came to 6630 nM.
With `Cc1ccc(/C=C/c2sccc2S(=O)(=O)Nc2onc(C)c2Br)cc1`, the half-inhibitory concentration (IC50) is 4130 nM in assay [3] and 231 nM in assay [4].
On to `Cc1noc(NS(=O)(=O)c2ccsc2/C=C/c2ccc3c(c2)OCO3)c1Br`, for which the IC50 in assay [3] is 5250 nM; in assay [4] it was 141 nM.
On to `Cc1cc(C)c(NC(=O)c2sccc2S(=O)(=O)Nc2onc(C)c2Cl)c(C)c1`, for which the IC50 in assay [4] came out at 630 nM.
For `Cc1ccc(CCc2sccc2S(=O)(=O)Nc2onc(C)c2Br)cc1`, the IC50 in assay [3] came out at 11700 nM.
For the compound `Cc1noc(NS(=O)(=O)c2sccc2/C=C/c2ccc3c(c2)OCO3)c1Br`, the figures for the IC50 in assay [3] and in assay [4] were 9950 nM and 218 nM, respectively.
The corresponding values for `Cc1cc(C)c(/C=C/c2ccsc2S(=O)(=O)Nc2onc(C)c2Br)c(C)c1` are 1720 nM and 53 nM.
The corresponding values for `Cc1cc2c(cc1/C=C/c1sccc1S(=O)(=O)Nc1onc(C)c1Br)OCO2` are 3280 nM and 81 nM.
As for `Cc1ccc(/C=C/c2ccsc2S(=O)(=O)Nc2onc(C)c2Br)c(C)c1`, the IC50 in assay [3] was 2970 nM; in assay [4], 180 nM.
Taken in the same sequence, the figures for `Cc1cc(C)c(CCc2sccc2S(=O)(=O)Nc2onc(C)c2Br)c(C)c1` were 2090 nM and 46 nM.
The corresponding values for `Cc1noc(NS(=O)(=O)c2sccc2CCc2ccc3c(c2)OCO3)c1Br` are 17900 nM and 237 nM.
Taken in the same sequence, the figures for `Cc1ccc(/C=C/c2sccc2S(=O)(=O)Nc2onc(C)c2Br)c(C)c1` were 2970 nM and 166 nM.
Take `Cc1ccc(CCc2ccsc2S(=O)(=O)Nc2onc(C)c2Br)c(C)c1`: the IC50 in assay [4] stood at 102 nM.
